Measurements from US20110144125A1, “Anti-Arrhythmia Agents, Methods of Their Use, Methods of Their Identification and Kits Therefore” (THE UAB RESEARCH FOUNDATION, priority 2008, published 2011).
Where “and” joins values, the source holds several entries; their conditions need not be identical. Equal entries are not always repeated. Where two headings read alike, the source gives them in different places.

Tests used:
[1] = tested on: rat left atrial appendage; experiment: 2-APB-induced spontaneous mechanical activity (SMA/SMEs) in isolated superfused rat left atria / left atrial appendage
[2] = tested on: rat left atrial appendage; experiment: ATXII-induced triggered activity and transition to automaticity in left atrial appendage; conditions: ATXII-treated appendages, ˜25 μM 2-APB
Source text: There are two types of afterdepolarizations; early afterdepolarizations (EADs) that occur early during repolarization and delayed afterdepolarizations (DADs) that occur in fully repolarized, resting myocytes (FIG. 4). Both EADs and DADs are defined as “triggered” activities as they require a preceding normal action potential to occur (FIG. 3B). One model to elicit EADs is to expose heart muscle or myocytes to Anemonia sulcata Toxin II (ATX II). This 47 amino acid peptide specifically enhances late sodium current and prolongs the action potential duration (FIG. 3D; middle panel). This leads to calcium loading of heart muscle followed by EADs during phase 2 or phase 3 of the action potential (FIGS. 3D & 5). These EADs, if of sufficient magnitude, produce ectopic mechanical events (FIG. 3B; ‡).
In embodiments of the assay an agent to induce arrhythmia will be introduced in the muscle. The arrhythmic agent may be chemical or physical. If the agent is chemical, it can be any chemical agent known by those skilled in the art to induce arrhythmia. The chemical agent will be introduced at a concentration sufficient to induce arrhythmia. If a certain type of arrhythmia is the subject of the assay (for example, triggered activity, tachycardia or any other type of arrhythmia), then the agent should be present at a concentration sufficient to produce the certain type of arrhythmia. One acceptable agent is anemone toxin II (“ATX II,”), the toxin of Anemone sulcata. ATX II is a sodium channel regulator.
It was tested whether the altered voltage-independent calcium homeostasis which 2-APB provokes is sufficient to initiate frank automaticity from triggered activity.

[3] = no 2-APB, 30 nM isoproterenol, 3 μM forskolin, 300 nM BayK 8644 or FPL-64176, 120 μM ouabain, 600 nM ryanodine

## ryanodine
[1]
  ectopic activity (SMEs/SMA/STA) with agent alone: SMEs, SMA or STA does not occur

## CC(C)NCC(O)c1ccc(O)c(O)c1 (stereo not drawn) [isoproterenol]
[1]; [3]
  ectopic activity (SMEs/SMA/STA) with agent alone: quiescent in the absence of pacing

## NCCOB(c1ccccc1)c1ccccc1 [2-APB, 2-aminoethoxydiphenyl borate]
[1]
  2-APB concentration giving intermittent increases in left atrial mechanical force independent of pacing (SMEs): > 7.5 µM
  2-APB concentration producing sporadic mechanical events in the absence of pacing stimulus: > 10 M
  SMEs during rest: numerous SMEs during rest
  SMEs giving way to SMA: Repeated SMEs
  SMEs in slowly paced preparations: only few SMEs
  rate of SMA: 47±6 contractions/min and ~50 contractions/min
[2]
  transition from triggered activity to STA: STA began to occur

## COC(=O)c1c(C)[nH]c(C)c1C(=O)c1ccccc1Cc1ccccc1 [FPL-64176, 2,5-Dimethyl-4-[2-(phenylmethyl)benzoyl]-111-pyrrole-3-carboxylic acid methyl ester]
[1]
  ectopic activity (SMEs/SMA/STA) with agent alone: SMA or SMEs do not occur

## C[C@@H]1O[C@@H](O[C@H]2C[C@@H](O)[C@]3(CO)[C@H]4[C@H](O)C[C@]5(C)[C@@H](C6=CC(=O)OC6)CC[C@]5(O)[C@@H]4CC[C@]3(O)C2)[C@H](O)[C@H](O)[C@H]1O [ouabain]
[1]; [3]
  ectopic activity (SMEs/SMA/STA) with agent alone: does not affect their mechanical stability

## COC(=O)C1=C(C)NC(C)=C([N+](=O)[O-])[C@H]1c1ccccc1C(F)(F)F [BayK 8644, (45)-1,4-Dihydro-2,6-dimethyl-5-nitro-4-[2-(trifluormethyl)phenyl]-3-pyridinecarboxylic acid methyl ester]
[1]
  ectopic activity (SMEs/SMA/STA) with agent alone: SMA or SMEs do not occur
